How the values were obtained:
[1] = Distribution coefficient (LogD7.4), shake flask method; assay type: physicochemical; conditions: n-octanol / phosphate buffer 0.1 M pH 7.4; n = 3
Method: LogD7.4 values were measured using the shake flask method. Briefly, an aliquot of ^18F-labeled tracer was added to a vial containing 2.5 mL of n-octanol and 2.5 mL of phosphate buffer (0.1 M, pH 7.4). The mixture was vortexed for 2 min and then centrifuged at 3,000g for 10 min. A sample of the n-octanol (0.1 mL) and buffer (0.1 mL) layers was counted using a γ-counter. Values of LogD7.4 were calculated using the following equation: LogD7.4 = log10 [(counts in n-octanol phase)/(counts in buffer phase)].

PSMA = molecular target: T1, PSMA (Homo sapiens, UniProt Q04609); experiment: In vitro competition binding assay on LNCaP cells with ^18F-DCFPyL as radioligand
T1 construct: because it expresses PSMA endogenously and is commonly used to evaluate PSMA-targeting radiotracers; endogenous in cells; host or cells: LNCaP cells
Method: LNCaP cells were plated onto a 24-well poly-D-lysine coated plate for 48 h (400,000/well). […] Nonspecific binding was determined in the presence of 10 μM unlabeled DCFPyL. The assay mixtures were incubated for 1 h at 37°C with gentle agitation followed by 2 washes with cold HEPES buffered saline. A trypsin solution (0.25%, 400 μL) was then added to each well to harvest the cells. Radioactivity was measured by γ-counting, and Ki values were calculated using the “1 site—fit Ki” built-in model in Prism 7 (GraphPad).

LNCaP xenografts = experiment: Ex vivo biodistribution and blocking studies in mice bearing LNCaP xenografts; conditions: for tumor uptake: LNCaP tumor
Method: Imaging and biodistribution experiments were performed using NODSCID IL2RγKO male mice. All experiments were conducted according to the guidelines established by the Canadian Council on Animal Care and approved by the Animal Ethics Committee of the University of British Columbia. Mice were anesthetized by inhalation with 2% isoflurane in oxygen and implanted subcutaneously with 1 × 10^7 LNCaP cells behind the left shoulder. The mice were imaged or used in biodistribution studies once the tumor reached 5–8 mm in diameter (5–6 wk).
For biodistribution and blocking studies, the mice were injected with 1–3 MBq of radiotracer. At 60 min, the mice were anesthetized with 2% isoflurane inhalation and euthanized by CO2 inhalation. Blood was withdrawn by cardiac puncture, and the organs and tissues of interest were collected, weighed, and counted using an automatic γ-counter (PerkinElmer). Uptake values were expressed as the percentage of the injected dose per gram of tissue (%ID/g).
A standard 1-way ANOVA was performed to determine whether statistically significant differences in tumor uptake occurred between radiotracers. Each radiotracer was compared with ^18F-DCFPyL using the Dunnett test (a many-to-one t test comparison). This analysis was also performed for kidney and blood activity and for tumor-to-blood and tumor-to-muscle ratios. Reported P values were adjusted for multiple comparisons. The analysis was performed using Prism 8 (GraphPad). […]
Statistical analyses were performed using GradPad prism 7. Multiple t tests were performed to compare biodistribution in unblocked and blocked mice, multiple comparisons were corrected using the Holm-Sidak method. The difference was considered statistically significant when p value was < 0.05.
Supplemental Table 1 – Complete biodistribution study for compounds [18F]1–3 […]
Tissue 1h 1h blocked 1h 1h blocked 1h 1h blocked
(%ID/g) n = 8 n = 4 n = 6 n = 4 n = 8 n = 5 […]
(1 picture or pasted object on this page, not shown here)

[2] = 1 h after injection, 1-way ANOVA, Dunnett test
[3] = 1 h blocked (coinjection of DCFPyL 0.5 mg)

T1 sequence (Q04609 whole entry): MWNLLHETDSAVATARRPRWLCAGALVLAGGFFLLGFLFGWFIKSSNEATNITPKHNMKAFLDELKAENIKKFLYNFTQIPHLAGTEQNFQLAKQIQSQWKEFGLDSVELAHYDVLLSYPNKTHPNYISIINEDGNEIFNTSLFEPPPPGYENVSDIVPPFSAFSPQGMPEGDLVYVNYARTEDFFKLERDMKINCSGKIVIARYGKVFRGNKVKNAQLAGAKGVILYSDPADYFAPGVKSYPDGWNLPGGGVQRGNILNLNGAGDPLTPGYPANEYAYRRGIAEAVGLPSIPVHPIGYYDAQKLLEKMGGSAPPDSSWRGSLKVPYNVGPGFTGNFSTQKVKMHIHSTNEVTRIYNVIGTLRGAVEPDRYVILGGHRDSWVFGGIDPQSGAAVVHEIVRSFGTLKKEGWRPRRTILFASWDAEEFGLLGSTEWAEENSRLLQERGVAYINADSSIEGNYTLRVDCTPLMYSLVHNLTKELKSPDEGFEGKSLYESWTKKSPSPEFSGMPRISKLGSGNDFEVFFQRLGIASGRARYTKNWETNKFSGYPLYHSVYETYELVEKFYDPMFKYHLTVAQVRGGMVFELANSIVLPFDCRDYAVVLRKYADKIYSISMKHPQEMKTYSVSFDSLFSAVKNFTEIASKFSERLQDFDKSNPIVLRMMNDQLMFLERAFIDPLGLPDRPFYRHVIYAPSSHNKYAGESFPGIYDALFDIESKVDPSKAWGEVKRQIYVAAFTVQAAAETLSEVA

With `O=C(O)CC[C@H](NC(=O)N[C@@H](CCCCNC(=O)[C@H](Cc1ccc2ccccc2c1)NC(=O)[C@H]1CC[C@H](CNC(=O)Cn2cc(C[n+]3ccc([B-](F)(F)F)cc3)nn2)CC1)C(=O)O)C(=O)O` [^18F-6] the LogD7.4 [1] was “most lipophilic compound of the series”, the logD at 2 min [1] was -2.28 ± 0.01 and the Ki (PSMA) was 1.9 ± 0.68 nM. For the same compound, the “intestinal activity compared with ^18F-DCFPyL” value (LNCaP xenografts; 1 h after injection) was “significantly higher intestinal activity than ^18F-DCFPyL”, the “T/B (tumor-to-blood ratio)” value (LNCaP xenografts; 1 h after injection, unblocked) was 19.80 ± 7.23 and the “T/K (tumor-to-kidney ratio)” value (LNCaP xenografts; 1 h after injection, unblocked) was 0.14 ± 0.02. The “T/M (tumor-to-muscle ratio)” value (LNCaP xenografts; 1 h after injection, unblocked) was 72.20 ± 13.46, the adrenal uptake (LNCaP xenografts; 1 h after injection, unblocked) was 2.14 ± 0.61 %ID/g and the blood uptake (LNCaP xenografts; 1 h after injection, unblocked) was 0.68 ± 0.26 %ID/g. For the same compound, the bone uptake (LNCaP xenografts; 1 h after injection, unblocked) was 0.56 ± 0.14 %ID/g, the brain uptake (LNCaP xenografts; 1 h after injection, unblocked) was 0.03 ± 0.01 %ID/g and the fat uptake (LNCaP xenografts; 1 h after injection, unblocked) was 0.38 ± 0.14 %ID/g. It also gave a heart uptake (LNCaP xenografts; 1 h after injection, unblocked) of 0.22 ± 0.03 %ID/g, an intestine uptake (LNCaP xenografts; 1 h after injection, unblocked) of 23.05 ± 4.39 %ID/g and a kidney uptake (LNCaP xenografts; 1 h after injection, unblocked) of 83.22 ± 6.07 %ID/g. The liver uptake (LNCaP xenografts; 1 h after injection, unblocked) was 0.98 ± 0.22 %ID/g, the lung uptake (LNCaP xenografts; 1 h after injection, unblocked) was 1.05 ± 0.14 %ID/g and the muscle uptake (LNCaP xenografts; 1 h after injection, unblocked) was 0.17 ± 0.02 %ID/g. It also gave a pancreas uptake (LNCaP xenografts; 1 h after injection, unblocked) of 0.26 ± 0.06 %ID/g, a spleen uptake (LNCaP xenografts; 1 h after injection, unblocked) of 1.77 ± 0.70 %ID/g and a stomach uptake (LNCaP xenografts; 1 h after injection, unblocked) of 1.17 ± 1.35 %ID/g. For the same compound, the testes uptake (LNCaP xenografts; 1 h after injection, unblocked) was 0.33 ± 0.05 %ID/g, the “tumor uptake compared with ^18F-DCFPyL” value (LNCaP xenografts; [2]) was “No statistically significant differences” and the “T/B (tumor-to-blood ratio)” value (LNCaP xenografts; [3]) was 0.72 ± 0.43. The “T/K (tumor-to-kidney ratio)” value (LNCaP xenografts; [3]) was 0.29 ± 0.07, the “T/M (tumor-to-muscle ratio)” value (LNCaP xenografts; [3]) was 3.78 ± 0.17 and the adrenal uptake (LNCaP xenografts; [3]) was 0.20 ± 0.04 %ID/g. For the same compound, the blood uptake (LNCaP xenografts; [3]) was 1.64 ± 2.58 %ID/g, the bone uptake (LNCaP xenografts; [3]) was 0.57 ± 0.37 %ID/g and the brain uptake (LNCaP xenografts; [3]) was 0.03 ± 0.03 %ID/g. It also gave a fat uptake (LNCaP xenografts; [3]) of 0.06 ± 0.02 %ID/g, a heart uptake (LNCaP xenografts; [3]) of 0.17 ± 0.07 %ID/g and an intestine uptake (LNCaP xenografts; [3]) of 24.50 ± 4.86 %ID/g. It also gave a kidney uptake (LNCaP xenografts; [3]) of 1.30 ± 0.25 %ID/g, a liver uptake (LNCaP xenografts; [3]) of 0.87 ± 0.17 %ID/g and a lung uptake (LNCaP xenografts; [3]) of 0.43 ± 0.23 %ID/g. It also gave a muscle uptake (LNCaP xenografts; [3]) of 0.10 ± 0.02 %ID/g, a pancreas uptake (LNCaP xenografts; [3]) of 0.16 ± 0.14 %ID/g and a spleen uptake (LNCaP xenografts; [3]) of 0.18 ± 0.10 %ID/g. For the same compound, the stomach uptake (LNCaP xenografts; [3]) was 0.88 ± 0.41 %ID/g, the testes uptake (LNCaP xenografts; [3]) was 0.14 ± 0.04 %ID/g and the tumor uptake (LNCaP xenografts; 1 h after injection, unblocked, listed as 6) was 11.9 ± 2.3 %ID/g. For the same compound, the tumor uptake (LNCaP xenografts; 1 h after injection, unblocked, listed as [18F]6) was 11.94 ± 2.29 %ID/g and the tumor uptake (LNCaP xenografts; [3]) was 0.37 ± 0.10 %ID/g.
For `C[N+](C)(Cc1cn(CC(=O)NCCOCCOCCC(=O)N[C@@H](Cc2ccc3ccccc3c2)C(=O)NCCCC[C@H](NC(=O)N[C@@H](CCC(=O)O)C(=O)O)C(=O)O)nn1)C[B-](F)(F)F` [^18F-7], the logD at 2 min [1] was -3.24 ± 0.03, the Ki (PSMA) was 16.5 ± 5.5 nM and the “T/B (tumor-to-blood ratio)” value (LNCaP xenografts; 1 h after injection, unblocked) was 54.57 ± 38.49. The “T/K (tumor-to-kidney ratio)” value (LNCaP xenografts; 1 h after injection, unblocked) was 0.28 ± 0.22, the “T/M (tumor-to-muscle ratio)” value (LNCaP xenografts; 1 h after injection, unblocked) was 117.13 ± 52.06 and the adrenal uptake (LNCaP xenografts; 1 h after injection, unblocked) was 0.81 ± 0.25 %ID/g. It also gave a blood uptake (LNCaP xenografts; 1 h after injection, unblocked) of 0.13 ± 0.08 %ID/g, a bone uptake (LNCaP xenografts; 1 h after injection, unblocked) of 0.10 ± 0.07 %ID/g and a brain uptake (LNCaP xenografts; 1 h after injection, unblocked) of 0.01 ± 0.01 %ID/g. It also gave a fat uptake (LNCaP xenografts; 1 h after injection, unblocked) of 0.27 ± 0.14 %ID/g, a heart uptake (LNCaP xenografts; 1 h after injection, unblocked) of 0.07 ± 0.02 %ID/g and an intestine uptake (LNCaP xenografts; 1 h after injection, unblocked) of 22.24 ± 2.79 %ID/g. It also gave a kidney uptake (LNCaP xenografts; 1 h after injection, unblocked) of 20.35 ± 9.85 %ID/g, a liver uptake (LNCaP xenografts; 1 h after injection, unblocked) of 0.83 ± 0.34 %ID/g and a lung uptake (LNCaP xenografts; 1 h after injection, unblocked) of 0.40 ± 0.13 %ID/g. It also gave a muscle uptake (LNCaP xenografts; 1 h after injection, unblocked) of 0.05 ± 0.01 %ID/g, a pancreas uptake (LNCaP xenografts; 1 h after injection, unblocked) of 0.13 ± 0.11 %ID/g and a spleen uptake (LNCaP xenografts; 1 h after injection, unblocked) of 0.75 ± 0.36 %ID/g. For the same compound, the stomach uptake (LNCaP xenografts; 1 h after injection, unblocked) was 0.21 ± 0.12 %ID/g, the testes uptake (LNCaP xenografts; 1 h after injection, unblocked) was 0.18 ± 0.05 %ID/g and the “kidney accumulation compared with ^18F-DCFPyL” value (LNCaP xenografts; [2]) was “lower kidney accumulation”. For the same compound, the “tumor uptake compared with ^18F-DCFPyL” value (LNCaP xenografts; [2]) was “lower tumor uptake than ^18F-DCFPyL”, the “tumor-to-blood and tumor-to-muscle ratios compared with ^18F-DCFPyL” value (LNCaP xenografts; [2]) was “higher ratios” and the “T/B (tumor-to-blood ratio)” value (LNCaP xenografts; [3]) was 1.56 ± 0.87. The “T/K (tumor-to-kidney ratio)” value (LNCaP xenografts; [3]) was 0.28 ± 0.12, the “T/M (tumor-to-muscle ratio)” value (LNCaP xenografts; [3]) was 3.62 ± 3.62 and the adrenal uptake (LNCaP xenografts; [3]) was 0.06 ± 0.09 %ID/g. The blood uptake (LNCaP xenografts; [3]) was 0.85 ± 1.37 %ID/g, the bone uptake (LNCaP xenografts; [3]) was 0.16 ± 0.25 %ID/g and the brain uptake (LNCaP xenografts; [3]) was 0.01 ± 0.01 %ID/g. For the same compound, the fat uptake (LNCaP xenografts; [3]) was 0.02 ± 0.02 %ID/g, the heart uptake (LNCaP xenografts; [3]) was 0.04 ± 0.01 %ID/g and the intestine uptake (LNCaP xenografts; [3]) was 26.68 ± 9.98 %ID/g. It also gave a kidney uptake (LNCaP xenografts; [3]) of 0.56 ± 0.18 %ID/g, a liver uptake (LNCaP xenografts; [3]) of 0.73 ± 0.21 %ID/g and a lung uptake (LNCaP xenografts; [3]) of 0.12 ± 0.04 %ID/g. For the same compound, the muscle uptake (LNCaP xenografts; [3]) was 0.24 ± 0.37 %ID/g, the pancreas uptake (LNCaP xenografts; [3]) was 0.06 ± 0.06 %ID/g and the spleen uptake (LNCaP xenografts; [3]) was 0.15 ± 0.16 %ID/g. The stomach uptake (LNCaP xenografts; [3]) was 1.55 ± 2.10 %ID/g, the testes uptake (LNCaP xenografts; [3]) was 0.04 ± 0.01 %ID/g and the tumor uptake (LNCaP xenografts; 1 h after injection, unblocked, listed as 7) was 5.1 ± 1.1 %ID/g. It also gave a tumor uptake (LNCaP xenografts; 1 h after injection, unblocked, listed as [18F]7) of 5.09 ± 1.10 %ID/g and a tumor uptake (LNCaP xenografts; [3]) of 0.15 ± 0.06 %ID/g.

From paper PMC6681697, “One-Step ^18F-Labeling and Preclinical Evaluation of Prostate-Specific Membrane Antigen Trifluoroborate Probes for Cancer Imaging” (Journal of Nuclear Medicine, 2019)
